Source: patent US20230270745A1 (Seagen Inc., priority 2020, published 2023)

Experiments:
[1] = test system: CTG-0121 HER2 positive CRC PDX model; experiment: CTG-0121 CRC PDX model, tumor growth inhibition; assay type: in vivo, Mice; conditions: study day 29; tucatinib 50 mg/kg orally twice per day, trastuzumab 20 mg/kg intraperitoneally once every three days
Procedure: (§1) The TGI index is calculated for a particular time point (e.g., a specific number of days into an experiment or clinical trial) according to the following formula: […]
(§2) where “Tx Day 0” denotes the first day that treatment is administered (i.e., the first day that an experimental therapy or a control therapy (e.g., vehicle only) is administered) and “Tx Day X” denotes X number of days after Day 0. […] As a non-limiting example, in an experiment where study day 0 corresponds to “Tx Day 0” and the TGI index is calculated on study day 28 (i.e., “Tx Day 28”), if the mean tumor volume in both groups on study day 0 is 250 mm^3 and the mean tumor volumes in the experimental and control groups are 125 mm^3 and 750 mm^3, respectively, then the TGI index on day 28 is 125%.
(§3) Tucatinib was administered orally at a dose of 50 mg/kg twice per day for 28 days (study days 0-27). […] A vehicle-only group was included as a negative control.

[2] = test system: CTG-0784 HER2 positive CRC PDX model; experiment: CTG-0784 CRC PDX model, tumor growth inhibition; assay type: in vivo, Mice; conditions: study day 29; tucatinib 50 mg/kg orally twice per day, trastuzumab 20 mg/kg intraperitoneally once every three days
Procedure: as §1, §2, §3

[3] = test system: CTG-0383 HER2 positive CRC PDX model; experiment: CTG-0383 CRC PDX model, tumor growth inhibition; assay type: in vivo, Mice; conditions: study day 29; tucatinib 50 mg/kg orally twice per day, trastuzumab 20 mg/kg intraperitoneally once every three days
Procedure: as §1, §2, §3

[4] = test system: CTG-0137 HER2 positive esophageal cancer PDX model; experiment: CTG-0137 esophageal cancer PDX model, tumor growth inhibition; assay type: in vivo, Mice; conditions: study day 15; tucatinib 50 mg/kg orally twice per day, trastuzumab 20 mg/kg intraperitoneally once every three days
Procedure: as §1, §2, §3

[5] = test system: CTG-0138 HER2 positive esophageal cancer PDX model; experiment: CTG-0138 esophageal cancer PDX model, tumor growth inhibition; assay type: in vivo, Mice; conditions: study day 30; tucatinib 50 mg/kg orally twice per day, trastuzumab 20 mg/kg intraperitoneally once every three days
Procedure: as §1, §2, §3

[6] = test system: GXA 3038 HER2 positive gastric cancer PDX model; experiment: GXA 3038 gastric cancer PDX model, tumor growth inhibition; assay type: in vivo, Mice; conditions: study day 28; tucatinib 50 mg/kg orally twice per day, trastuzumab 20 mg/kg intraperitoneally once every three days
Procedure: as §1, §2, §3

[7] = test system: GXA 3039 HER2 positive gastric cancer PDX model; experiment: GXA 3039 gastric cancer PDX model, tumor growth inhibition; assay type: in vivo, Mice; conditions: study day 29; tucatinib 50 mg/kg orally twice per day, trastuzumab 20 mg/kg intraperitoneally once every three days
Procedure: as §1, §2, §3

[8] = test system: GXA 3054 HER2 positive gastric cancer PDX model; experiment: GXA 3054 gastric cancer PDX model, tumor growth inhibition; assay type: in vivo, Mice; conditions: study day 17; tucatinib 50 mg/kg orally twice per day, trastuzumab 20 mg/kg intraperitoneally once every three days
Procedure: as §1, §2, §3

[9] = test system: CTG-0927 HER2 positive cholangiocarcinoma PDX model; experiment: CTG-0927 cholangiocarcinoma PDX model, tumor growth inhibition; assay type: in vivo, Mice; conditions: study day 28; tucatinib 50 mg/kg orally twice per day, trastuzumab 20 mg/kg intraperitoneally once every three days
Procedure: as §1, §2, §3

[10] = test system: Calu-3 NSCLC xenograft model; experiment: Calu-3 NSCLC xenograft model, tumor growth inhibition; assay type: in vivo, Mice; conditions: study day 28; tucatinib 50 mg/kg orally twice per day for 21 days, trastuzumab 20 mg/kg intraperitoneally once every three days, from study day 7
Procedure: as §1, §2
(§4) For the Calu-3 study, tucatinib was administered orally at a dose of 50 mg/kg twice per day for 21 days, beginning on study day 7. […] A vehicle-only group was included as a negative control.

[11] = test system: NCI-H2170 NSCLC xenograft model; experiment: NCI-H2170 NSCLC xenograft model, tumor growth inhibition; assay type: in vivo, Mice; conditions: study day 39; tucatinib 50 mg/kg orally twice per day for 21 days, trastuzumab 20 mg/kg intraperitoneally twice per week, from study day 18
Procedure: as §1, §2, §4
For the NCI-H2170 study, tucatinib was administered orally at a dose of 50 mg/kg twice per day for 21 days, beginning on study day 18. […] A vehicle-only group was included as a negative control.

Calu-3 cells = experiment: Response of Calu-3 cells to tucatinib in vitro; assay type: cell-based; conditions: previously demonstrated
NCI-H2170 cells = experiment: Response of NCI-H2170 cells to tucatinib in vitro; assay type: cell-based; conditions: previously demonstrated

Cc1cc(Nc2ncnc3ccc(NC4=NC(C)(C)CO4)cc23)ccc1Oc1ccn2ncnc2c1 [Tucatinib, tucatinib]
Observed TGI (tumor growth inhibition index) [1]: 104% | Observed TGI (tumor growth inhibition index) [2]: 50% | Observed TGI (tumor growth inhibition index) [3]: 117% | Observed TGI (tumor growth inhibition index) [4]: 49% | Observed TGI (tumor growth inhibition index) [5]: 69% | Observed TGI (tumor growth inhibition index) [6]: 110% | Observed TGI (tumor growth inhibition index) [7]: 48% | Observed TGI (tumor growth inhibition index) [8]: 65% | Observed TGI (tumor growth inhibition index) [9]: 48% | Observed TGI (tumor growth inhibition index) [10]: 63% | Observed TGI (tumor growth inhibition index) [11]: 91% | Response to tucatinib in vitro (Calu-3 cells): good responses | Response to tucatinib in vitro (NCI-H2170 cells): good responses
